Measured values reported in patent publication US8748417B2, “Amino-pyrrolidine-azetidine diamides as monoacylglycerol lipase inhibitors” (Janssen Pharmaceutica, NV, priority 2010, dated 2014).
Substitutions are numbered along the chain they refer to.

Columns and labels:
Format in all cases: biochemical
[1] = system: MGL (rat brain homogenate); test: 2-AG accumulation assay in rat brain homogenate; details: compound 1 μM, percent of vehicle 2-AG accumulation
How it was run: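 Rat brain homogenate was incubated with compound for 15 min at 37° C., after which CaCl2 was added to a final concentration of 10 mM and incubation continued for 15 min at 37° C. in 5 mL total. Reactions were stopped with 6 mL of 2:1 chloroform/methanol, and 2-AG accumulated in the organic phase was quantified by HPLC/MS.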

[2] = molecular target: T1, purified wild type MGL (wt-MGLL 6H-11-313) (Homo sapiens, UniProt Q99685); test: MGL enzyme activity assay (4MU-B cleavage), wild type MGL; details: wild type MGL 5 nM, 4MU-B 10 μM, 37° C.; read-out: MGL wild type inh IC50
T1 construct: purified wild type MGL (wt-MGLL 6H-11-313)
T1 sequence (Q99685 1-303): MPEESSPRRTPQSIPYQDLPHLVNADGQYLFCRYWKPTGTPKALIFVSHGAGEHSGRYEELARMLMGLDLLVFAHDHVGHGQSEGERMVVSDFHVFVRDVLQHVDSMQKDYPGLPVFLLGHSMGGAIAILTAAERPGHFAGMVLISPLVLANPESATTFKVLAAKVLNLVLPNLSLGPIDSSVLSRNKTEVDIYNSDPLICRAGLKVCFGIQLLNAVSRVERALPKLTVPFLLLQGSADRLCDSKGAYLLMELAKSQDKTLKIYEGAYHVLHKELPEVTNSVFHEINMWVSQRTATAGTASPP
How it was run: (§1)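 Enzyme in 20 mM PIPES pH 7.0, 150 mM NaCl, 0.001% Tween 20 with 4MU-B at 10 μM final and MGL at 5 nM final; compounds 17 to 0.0003 μM final, enzyme added last. Fluorescence (ex 335/em 440 nm) followed at 37° C for 5 min; IC50 from fit of fractional activity versus inhibitor concentration.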

[3] = molecular target: T2, purified mutant MGL (mut-MGLL 11-313 L179S L186S) (Homo sapiens, UniProt Q99685, L169S/L176S); test: MGL enzyme activity assay (4MU-B cleavage), mutant MGL; details: mutant MGL 5 nM, 4MU-B 10 μM, 37° C.; read-out: MGL mutant inh IC50
T2 construct: purified mutant MGL (mut-MGLL 11-313 L179S L186S)
T2 sequence (Q99685 1-303 L169S/L176S): T1 sequence (Q99685 1-303) with L169S, L176S
How it was run: as §1

SMILES | Rat Brain 2AG % VehCntrl (%) @1 μM [1] | IC50 [2] | IC50 [3]
CN(C1CN(C(=O)c2ccc(-c3cccc(C(F)(F)F)c3)cc2)C1)[C@H]1CCN(C(=O)c2ccccc2)C1 [Cpd 15, (3S)-N-Methyl-1-(phenylcarbonyl)-N-(1-{[3′-(trifluoromethyl)biphenyl-4-yl]carbonyl}azetidin-3-yl)pyrrolidin-3-amine] | 649% | 26.5 nM | 11.7 nM
O=C(c1ccccc1)N1CC[C@H](NC2CN(C(=O)c3cc4cc(OC(F)(F)F)ccc4s3)C2)C1 [Cpd 18, (3S)-1-(Phenylcarbonyl)-N-(1-{[5-(trifluoromethoxy)-1-benzothiophen-2-yl]carbonyl}azetidin-3-yl)pyrrolidin-3-amine] | 229% | 17.6 nM | 16.8 nM
O=C(c1ccc2c(-c3cccc(C(F)(F)F)c3)cccc2c1)N1CC(N[C@H]2CCN(C(=O)c3ccccc3)C2)C1 [Cpd 25, (3S)-1-(Phenylcarbonyl)-N-[1-({5-[3-(trifluoromethyl)phenyl]naphthalen-2-yl}carbonyl)azetidin-3-yl]pyrrolidin-3-amine] | 823% | < 5 nM | 7 nM
O=C(c1ccc2c(c1)Cc1ccccc1-2)N1CC(N[C@H]2CCN(C(=O)c3ccccc3)C2)C1 [Cpd 27, (3S)-N-[1-(9H-Fluoren-2-ylcarbonyl)azetidin-3-yl]-1-(phenylcarbonyl)pyrrolidin-3-amine] | 125% |  | 96.7 nM
O=C(c1ccccc1)N1CC[C@H](NC2CN(C(=O)c3sc4cc(C(F)(F)F)ccc4c3Cl)C2)C1 [Cpd 28, (3S)-N-(1-{[3-Chloro-6-(trifluoromethyl)-1-benzothiophen-2-yl]carbonyl}azetidin-3-yl)-1-(phenylcarbonyl)pyrrolidin-3-amine] | 511% |  | < 5 nM
O=C(c1ccc(-c2cccc(Cl)c2)cc1)N1CC(N[C@H]2CCN(C(=O)c3ccccc3)C2)C1 [Cpd 29, (3S)-N-{1-[(3′-Chlorobiphenyl-4-yl)carbonyl]azetidin-3-yl}-1-(phenylcarbonyl)pyrrolidin-3-amine] | 163% | 9.8 nM | 11 nM
O=C(c1ccc(-c2ccc(Cl)c(Cl)c2)cc1)N1CC(N[C@H]2CCN(C(=O)c3ccccc3)C2)C1 [Cpd 30, (3S)-N-{1-[(3′,4′-Dichlorobiphenyl-4-yl)carbonyl]azetidin-3-yl}-1-(phenylcarbonyl)pyrrolidin-3-amine] | 155% | 7 nM | 8.8 nM
O=C(c1ccccc1)N1CC[C@H](NC2CN(C(=O)c3sc4cc(-c5ccccc5)ccc4c3Cl)C2)C1 [Cpd 31, (3S)-N-{1-[(3-Chloro-6-phenyl-1-benzothiophen-2-yl)carbonyl]azetidin-3-yl}-1-(phenylcarbonyl)pyrrolidin-3-amine] | 323% | < 5 nM | 5 nM
O=C(c1ccccc1)N1CC[C@H](NC2CN(C(=O)c3sc4cc(-c5cccc(C(F)(F)F)c5)ccc4c3Cl)C2)C1 [Cpd 32, (3S)-N-[1-({3-Chloro-6-[3-(trifluoromethyl)phenyl]-1-benzothiophen-2-yl}carbonyl)azetidin-3-yl]-1-(phenylcarbonyl)pyrrolidin-3-amine] | 524% | < 5 nM | < 5 nM
O=C(c1ccccc1)N1CC[C@H](NC2CN(C(=O)c3sc4cc(-c5ccc(C(F)(F)F)cc5)ccc4c3Cl)C2)C1 [Cpd 33, (3S)-N-[1-({3-Chloro-6-[4-(trifluoromethyl)phenyl]-1-benzothiophen-2-yl}carbonyl)azetidin-3-yl]-1-(phenylcarbonyl)pyrrolidin-3-amine] | 499% | < 5 nM | < 5 nM
O=C(c1ccc2c(Br)cccc2c1)N1CC(N(O)[C@H]2CCN(C(=O)c3ccccc3)C2)C1 [Cpd 34, (3S)-N-{1-[(5-Bromonaphthalen-2-yl)carbonyl]azetidin-3-yl}-N-hydroxy-1-(phenylcarbonyl)pyrrolidin-3-amine] | 645% |  | 13.2 nM
Cc1c(C(=O)N2CC(N[C@H]3CCN(C(=O)c4ccccc4)C3)C2)sc2ccc(Cl)cc12 [Cpd 37, (3S)-N-{1-[(5-Chloro-3-methyl-1-benzothiophen-2-yl)carbonyl]azetidin-3-yl}-1-(phenylcarbonyl)pyrrolidin-3-amine] | 381% |  | 47.7 nM
Cc1c(C(=O)N2CC(N[C@H]3CCN(C(=O)c4ccccc4)C3)C2)sc2ccc(-c3cccc(C(F)(F)F)c3)cc12 [Cpd 41, (3S)-N-[1-({3-Methyl-5-[3-(trifluoromethyl)phenyl]-1-benzothiophen-2-yl}carbonyl)azetidin-3-yl]-1-(phenylcarbonyl)pyrrolidin-3-amine] | 1102% | < 5 nM | 6.3 nM
O=C(c1ccccc1)N1CC[C@H](NC2CN(C(=O)c3cc4ccc(-c5cccc(C(F)(F)F)c5)cc4s3)C2)C1 [Cpd 44, (3S)-1-(Phenylcarbonyl)-N-[1-({6-[3-(trifluoromethyl)phenyl]-1-benzothiophen-2-yl}carbonyl)azetidin-3-yl]pyrrolidin-3-amine] | 839% | 9 nM | 31.7 nM
CCN(C1CN(C(=O)c2ccc(-c3cccc(C(F)(F)F)c3)cc2)C1)[C@H]1CCN(C(=O)c2ccccc2)C1 [Cpd 53, (3S)-N-Ethyl-1-(phenylcarbonyl)-N-(1-{[3′-(trifluoromethyl)biphenyl-4-yl]carbonyl}azetidin-3-yl)pyrrolidin-3-amine] | 164% | 286 nM | 10 nM
O=C(c1ccc(-c2cccc(C(F)(F)F)c2)cc1)N1CC(N(O)[C@H]2CCN(C(=O)c3ccccc3)C2)C1 [Cpd 54, (3S)-N-Hydroxy-1-(phenylcarbonyl)-N-(1-{[3′-(trifluoromethyl)biphenyl-4-yl]carbonyl}azetidin-3-yl)pyrrolidin-3-amine] | 242% | 58.8 nM | < 5 nM
O=C(c1ccccc1)N1CC[C@H](NC2CN(C(=O)c3sc4ccccc4c3Br)C2)C1 [Cpd 55, (3S)-N-{1-[(3-Bromo-1-benzothiophen-2-yl)carbonyl]azetidin-3-yl}-1-(phenylcarbonyl)pyrrolidin-3-amine] | 247% | 20.2 nM | < 5 nM
O=C(c1ccccc1)N1CC[C@H](NC2CN(C(=O)c3sc4cc(F)ccc4c3Cl)C2)C1 [Cpd 56, (3S)-N-{1-[(3-Chloro-6-fluoro-1-benzothiophen-2-yl)carbonyl]azetidin-3-yl}-1-(phenylcarbonyl)pyrrolidin-3-amine] | 222% | 68.4 nM | < 5 nM
O=C(c1ccc2c(-c3ccccc3)c[nH]c2c1)N1CC(N[C@H]2CCN(C(=O)c3ccccc3)C2)C1 [Cpd 57, (3S)-1-(Phenylcarbonyl)-N-{1-[(3-phenyl-1H-indol-6-yl)carbonyl]azetidin-3-yl}pyrrolidin-3-amine] | 154% | 179 nM | 44.3 nM
Cc1c(C(=O)N2CC(N[C@H]3CCN(C(=O)c4ccccc4)C3)C2)sc2ccccc12 [Cpd 68, (3S)-N-{1-[(3-Methyl-1-benzothiophen-2-yl)carbonyl]azetidin-3-yl}-1-(phenylcarbonyl)pyrrolidin-3-amine] | 161% |  | 84.5 nM
O=C(c1ccccc1)N1CC[C@H](NC2CN(C(=O)c3sc4cc(F)ccc4c3C3CC3)C2)C1 [Cpd 70, (3S)-N-{1-[(3-Cyclopropyl-6-fluoro-1-benzothiophen-2-yl)carbonyl]azetidin-3-yl}-1-(phenylcarbonyl)pyrrolidin-3-amine] | 217% |  | 25.5 nM
O=C(c1ccc(C(F)(F)c2ccccc2)cc1)N1CC(N[C@H]2CCN(C(=O)c3ccccc3)C2)C1 [Cpd 73, (3S)-N-[1-({4-[Difluoro(phenyl)methyl]phenyl}carbonyl)azetidin-3-yl]-1-(phenylcarbonyl)pyrrolidin-3-amine] | 441% |  | 15.8 nM
